Results reported in paper PMC8532147, “Dual Stimuli-Responsive Dynamic Covalent Peptide Tags: Toward Sequence-Controlled Release in Tumor-like Microenvironments” (Journal of the American Chemical Society, 2021).
“Also recorded” adds a separate entry of the source. Values belong to the molecule of their own block, whether it stands above or below them. Square brackets hold non-standard residues; d marks the D form. Ends that are not written are not given here. Peptide text beside a SMILES is read from it. Phe(4-B(OH)2) = N[C@@H](Cc1ccc(B(O)O)cc1)C(=O)O; Dopa = N[C@@H](Cc1ccc(O)c(O)c1)C(=O)O

B1: OSCSO (peptide)
chain: [Dopa]SCS[Dopa]

Columns and labels:
[1] = quoted as stand-in for the pKa of 4-borono-phenylalanine; cited from earlier work
BSCSB = experiment: Isothermal titration calorimetry (ITC), BSCSB titrated into the ligand peptide; format: binding; conditions: for binding in ITC at pH 7.4 (ligand comparison): pH 7.4, 25 °C, BSCSB titrated to YSCSY or OSCSO as ligand
Description: The pH-reversible interactions of boronic acid and catechol groups, the formation of disulfides, as well as the responsiveness of the bis-peptide system were further investigated under different conditions (Figure 5). First, the boronic acid condensation with the complementary catechol and the thermodynamic properties were assessed under pH conditions that are relevant to physiological conditions, i.e., pH = 7.4 typical for extracellular environment of normal tissues and pH 6 for acidic intracellular compartments such as endosomes.[28] Equimolar concentrations of the reacting tags were applied to investigate the thermodynamic parameters associated with the formation of the heterodimer. DyLight488 labeled peptide (DL488-BSCSB) was synthesized by connecting the commercially available NHS-ester of this dye to the N-terminus of the BSCSB sequence to enable a microscale thermophoresis (MST) experiment, in which the dissociation constant could be determined. MST measurements were performed by titrating DL488-BSCSB (2 μM) against the complementary OSCSO peptide binding partner (76 nM to 5 mM). […] Such an improvement could be explained by the lack of electrostatic repulsion due to the presence of the electroneutral serine (at physiological pH) in the sequence. […] To assess the binding constant at physiological pH and to understand the type of complex formed, isothermal titration calorimetry (ITC) measurements were performed. The raw data were plotted as heat rate versus time at pH = 6 and 7.4. (SI, Figure S16). […]
Additionally the same amount of BSCSB solution was titrated into pure water to determine the heat of dilution for reference. As a control another sequence was checked for binding with L-tyrosines instead of L-DOPA and measured as before mentioned. […]
Figure S 16: ITC titrations performed at a) pH = 7.4 and b) 6.0, showing the heat rate signals after base line correction. No heat change different from the dilution (blank) was detected for pH = 6.0. […]

A549 cells = experiment: Cell uptake by confocal microscopy; format: cell-based, human; conditions: 24 h, 37 °C
Description: For cell uptake studies, A549 cell line was selected, which is a model of alveolar Type II pulmonary epithelium.[35] The uptake was performed under two conditions to test the robustness of the resultant conjugate, which represents the extracellular conditions found in different stages of cancer progression.[36] Internalization of the conjugate was first studied in standard cell culture media (∼ neutral pH). A solution of DL488 ≃ TAT was applied directly to A549 cells to a final concentration of 10 μM, without any further workup or further purification. As additional controls, (1) a conjugate DL488-BSCSB ≃ OSCSO incubated with free TAT sequence and (2) a conjugate without the disulfide bridge (DL488-BSGSB) ∼ (TAT-OSCSO) where cysteine was replaced by glycine in one of the sequences were both applied at 10 μM (Figure 7a). […] Next, we proceeded to verify that the peptide tags are robust even under metastatic tumor-like microenvironment, where acidosis is a hallmark. Consequently, the low extracellular pH can result in a more invasive phenotype (Figure 7c), which is more challenging to treat.[28] First, A549 cancer cells were subjected to acute acidification to derive cells cultured at pH 6.4.[37]−[39] Thereafter DL488 ≃ TAT and controls 1 and 2 were applied at 10 μM for 24 h. […] Therefore, the linker chemistry can potentially be adopted for more invasive cancer phenotypes.
Sample preparation protocol. 20 µL of 2 mM solutions of DL488-BSCSB and either OSCSO, OSCSO and TAT or TAT-OSCSO were mixed together to obtain 40 µL of 1 mM solution of preassembled conjugate (in 10 mM phosphate buffer pH = 8 with 10% DMSO). The conjugate was subsequently oxidized by addition of 1 µL 75 mM potassium peroxymonosulfate (Oxone®) solution in 100 mM PB, pH = 7.4 to obtain its final concentration as 1.8 mM. Prepared conjugate was used directly for the cell studies without […]
Cell culture. The human cell line A549 from adenocarcinomic lung tissue (American Type Culture Collection, Manassas, VA, US) was cultured in Dulbecco's modified Eagle medium (DMEM 4.5 g/L D-Glucose, L-Glutamine; Gibco by ThermoFisher Scientific, Germany) supplemented with 10% fetal calf serum (FCS; Sigma Aldrich, Germany) and 1% Penicillin/Streptomycin (Invitrogen, Germany) at a humified atmosphere with 37 °C and 5% CO2 . Fresh culture medium was replaced every two days and cells were subcultured after reaching 80% confluence.
Evaluation of cell uptake. A549 cells were detached by TrypLE Select (Gibco by ThermoFisher Scientific, Germany) and centrifuged 5 min at 1000 rpm. […]

[2] = target: T1, DyLight488 labeled peptide DL488-BSCSB; experiment: MST; DL488-BSCSB (2 μM) held constant, OSCSO titrated (76 nM to 5 mM); 100 mM phosphate buffer pH 6.0 in the presence of TCEP; the legend of Figure 5b calls it a fluorescence quenching assay; conditions: both partners purified
T1 chain: DyLight488-[Phe(4-B(OH)2)]SCS[Phe(4-B(OH)2)]

[3] = target: T1, DyLight488 labeled peptide DL488-BSCSB; experiment: MST; DL488-BSCSB (2 μM) held constant, OSCSO titrated (76 nM to 5 mM); 100 mM phosphate buffer pH 7.4 in the presence of TCEP; the legend of Figure 5b calls it a fluorescence quenching assay; conditions: both partners purified
OSCSO = target: B1; experiment: ITC; BSCSB titrated to OSCSO (2Red); 100 mM phosphate buffer pH 7.4; independent binding model fit; conditions: both partners purified
[4] = standard cell culture media (∼ neutral pH), 10 μM, triplicates

Molecule: Cc1ccc(B(O)O)cc1 [4-methylphenylboronic acid]
pKa [1]: ~8.9

Molecule: NC(=O)[C@H](Cc1ccc(O)c(O)c1)NC(=O)[C@H](CO)NC(=O)[C@H](CS)NC(=O)[C@H](CO)NC(=O)[C@@H](N)Cc1ccc(O)c(O)c1 [OSCSO] (H-[Dopa]SCS[Dopa]-NH2)
binding in ITC at pH 6 (BSCSB; pH 6.0, 100 mM phosphate buffer, 25 °C, BSCSB titrated into OSCSO, compared with heat of dilution): No heat change different from the dilution; also recorded: lack of binding | binding in ITC at pH 7.4 (ligand comparison) (BSCSB): significant heat change

Molecule: (DL488-BSGSB) ∼ (TAT-OSCSO) (sidechain bridge or staple) [control 2]
uptake in A549 cells (A549 cells; acidic media pH 6.4, 10 μM, no CO2, triplicates): not internalized | uptake in A549 cells (A549 cells; [4]): no uptake was observed

Molecule: DL488-BSCSB≃OSCSO+TAT (bicyclic or more) [control 1]
uptake in A549 cells (A549 cells; [4]): no uptake was observed

Molecule: DL488-BSCSB≃OSCSO-TAT (bicyclic or more) [DL488 ≃ TAT, dual responsive conjugate of TAT-OSCSO and DL488-BSCSB after addition of Oxone]
uptake in A549 cells (A549 cells; [4]): significant uptake

binding in ITC at pH 7.4 (ligand comparison) (BSCSB): No binding
Molecule: YSCSY

Molecule: B1
Kd [2]: > 440000 nM | Kd [3]: 1800 ± 400 nM

Kd (OSCSO): 1800 ± 400 nM | stoichiometry N (OSCSO): 1.2 ± 0.1
B2: BSCSB (peptide)
chain: [Phe(4-B(OH)2)]SCS[Phe(4-B(OH)2)]
